Data reported in patent publication US8691261B2, “Drug, drug guidance system, magnetic detection system, and drug design method” (IHI Corporation, priority 2005, dated 2014).

Key:
[1] = compared to cisplatin; cited from earlier work
rat L6 cells = assay: number of rat L6 cells in flask with bar magnet after sprinkling Fe complex powder; type: cell-based; conditions: 48 hours, bar magnet in contact with flask
From the text: A group of samples shown on the left side is obtained by diluting a pyridine concentrate solution with water (double distilled water (DDW)), while a group of samples shown on the right side is obtained by diluting a pyridine iron complex saturated solution with pyridine. By changing the concentration of the iron complex in pyridine to, for example, ½ or 1/16 of the aforementioned concentration of the solution containing only pyridine, the MRI can detect changes in the concentration through images. Subsequently, when rat L6 cells were in 30% confluent state, Fe complex powder was sprinkled over a culture medium as much as required to enable visual observation of the Fe complex powder when being drawn to magnets. 48 hours later, the condition of the culture medium was photographed.
Referring to FIG. 22, “proximal to magnet” means within the projected area of the bottom of the rectangular flask in contact with the end face of the magnet, while “distal from magnet” means an area of the rectangular flask opposite the end face of the magnet. […] As a result, the magnetic drug and the system including the magnetic field generating means according to the present invention can concentrate the drug at the target affected part or tissues of an individual body.

[2] = magnetic guidance to mouse right kidney, SNR measured by MRI; type: in vivo; conditions: intravenous, 5 mg/ml (15 mM), right kidney approximately 0.3 T, 10 minutes
From the text: Next, another example of a guidance system according to the present invention will be explained. In this guidance system, a pair of magnets 230 and 232 located opposite to each other in a direction of gravitational force is supported by a stand 234 and a clamp 235, and a metal plate 236 is placed between the magnets as shown in FIG. 23. A locally uniform and strong magnet field can be generated by placing the metal plate, particularly an iron plate, between the pair of magnets.
The drug can be concentrated on the target tissues by placing the tissues of the individual body in this area of the magnetic field. The aforementioned metal complex (drug concentration: 5 mg/ml (15 mM)) was administered intravenously to a mouse (weight: approximately 30 g), the abdominal cavity of the mouse was opened, and the mouse was then placed on the iron plate so that its right kidney was positioned between the pair of magnets.
The magnets used were neodymium permanent magnets made by Shin-Etsu Chemical Co., Ltd. (product number: N50; residual magnetic flux density: 1.39-1.44 T). […] The magnetic field was applied to the mouse's right kidney; and 10 minutes later, the SNR of the right kidney as well as the left kidney […] (control) to which no magnetic field was applied was measured in T1 mode and T2 mode, using the MRI system.

| Molecule | anticancer effect [1] | number of cells at area proximal to the magnet compared to area distal from the magnet (rat L6 cells) | amount of drug held in kidney tissues (SNR, T1 and T2 mode MRI) [2] |
| --- | --- | --- | --- |
| CC(C[NH-])CC[NH-].O=C([O-])C1(C(=O)[O-])CCC1.[Pt+4] [NK121] | comparable to that of cisplatin |  |  |
| Fe-salen |  | extremely low | larger amount of the drug could be held in the tissues of the right kidney (RT) |
